# Where two headings read alike, the source gives them in different places.
# Experiments:
# Water solubility assay = format: physicochemical; details: read-out: Water solubility, Content
# From the text: The water solubility of the compounds of the present invention can be determined by methods known in the art and the result is shown in Table 3.
# CAR cells = assay: MTT assay, antiproliferation on cisplatin-resistant head and neck squamous carcinoma (CAR) cells; format: cell-based, human; details: Homo sapiens, CAR cells, MTT
# Experimental: The human head and neck carcinoma cell line CAL27 was obtained from American Tissue Culture Collection (ATCC). The cisplatin-resistant cell line CAR (CAL27-cisplatin resistance) was established by clonal selection of CAL27 using 10 cycles of 1 passage treatment with 10-80 μM of cisplatin (Sigma-Aldrich Corp. (St. Louis, Mo., USA) followed by a recovery period of another passage. CAR cells were cultivated in Dulbecco's modified Eagle's medium (DMEM) supplemented with 10% FBS, 100 μg/mL streptomycin, 100 U/mL penicillin G, 2 mM L-glutamine (Gibco by Life Technologies (Carlsbad, Calif., USA)) and 80 μM of cisplatin (Sigma-Aldrich Corp. (St. Louis, Mo., USA).
# (§1) Antiproliferations of compound 2-4 were determined by an improved MTT assay. The CAR cells were individually plated at a density of 2×10^4 cells/well onto 96-well plates and treated with Dimethyl sulfoxide (DMSO) alone (0.5% (v/v) in media served as a vehicle control) and various concentrations (0, 25, 50, 75 and 100 μM) of compound 2-4 for 24 and 48 hours. Following the above treatments, the supernatant was discarded before a 100 μL solution of MTT (500 μg/ml) was added to each well for 4 hours at 37 °C. After incubation, the medium was replaced by the addition of 200 μL DMSO to solubilize the violet formazan crystal produced from MTT. The absorbance of the dissolved formazan grained within the cells was measured at 570 nm by a microplate reader to calculate viability (data shown as % of control).
# (§2) Please refer to Table 1. Hep3B cells and CAR cells were treated by different concentrations of the compounds of the invention for 48 and 72 hours, and the antiprolifieration effect of such compounds was evaluated using MTT assay. Data are presented as IC50 (μM), the concentration of 50% proliferation-inhibitory effect.
# MTT assay was utilized and CAR cells were treated with compound 2-4 in different concentration for 24, 48 and 72 hours. […] The IC50 after 72 hours of treatment was 50 μM.
# Hep3B cells = assay: MTT assay, antiproliferation on Hep3B cells; format: cell-based; details: for anticancer activity compared with resveratrol and pterostilbene: Hep 3B and CAR cells, Table 1; for IC50: Homo sapiens, Hep3B cells, MTT
# Experimental: as §1, §2
# The anti-proliferative ability of compound 2-4 in hepatocellular carcinoma was evaluated in Hep3B cells using MTT assay. Hep3B cells were treated with various concentrations of compound 2-4 for 48 and 72 hours.
# [1] = dose up to 3.0 g/kg/day; cited from earlier work
# [2] = 48 hours, read-out: CAR (IC50 (μM)) 48 hours
# [3] = 72 hours, read-out: CAR (IC50 (μM)) 72 hours
# [4] = 48 hours, read-out: Hep 3B (IC50 (μM)) 48 hours
# [5] = 72 hours, read-out: Hep 3B (IC50 (μM)) 72 hours
Compound,solubility (Water solubility assay),IC50 (CAR cells; [2]),IC50 (CAR cells; [3]),anticancer activity compared with resveratrol and pterostilbene (Hep3B cells),IC50 (Hep3B cells; [4]),IC50 (Hep3B cells; [5]),28 days subchronic toxicity [1]
"COc1cc(O)cc(/C=C/c2ccc(OC(=O)C(C)(CO)CO)cc2)c1 [Compound 11-3, 3-methyl-4′-[2,2-Bis(hydroxymethyl)propanoxy]-resveratrol]",35.8 µg/mL,67.3 µM,64 µM,more potent anticancer activity than resveratrol and pterostilbene,88.9 µM,33.2 µM,
CC(CO)(CO)C(=O)Oc1cc(O)cc(/C=C/c2ccc(O)cc2)c1 [Compound 5-3],410 µg/mL,54.9 µM,113 µM,,83.5 µM,68.9 µM,
"CC(=O)Oc1cc(/C=C/c2ccc(OC(=O)C(C)(CO)CO)cc2)cc(OC(=O)C(C)(CO)CO)c1 [Compound 10-4, 3-acetyl-5,4′-[2,2-Bis(hydroxymethyl)propanoxy]-resveratrol]",> 1000 µg/mL,122 µM,119 µM,,> 200 µM,> 200 µM,
"Oc1ccc(/C=C/c2cc(O)cc(O)c2)cc1 [Resveratrol, 3,5,4′-trihydroxy-trans-stilbene, reference compound]",107 µg/mL,153 µM,88.3 µM,,96.4 µM,51.6 µM,
"CC(=O)Oc1cc(/C=C/c2ccc(OC(=O)C(C)(CO)CO)cc2)cc(OC(C)=O)c1 [Compound 9-4, 3,5-acetyl-4′-[2,2-Bis(hydroxymethyl)propanoxy]-resveratrol]",306 µg/mL,103 µM,116 µM,,148 µM,62 µM,
CC(CO)(CO)C(=O)Oc1ccc(/C=C/c2cc(O)cc(O)c2)cc1 [Compound 3-5],52.9 µg/mL,169 µM,133 µM,,144 µM,47.8 µM,
"COc1cc(/C=C/c2ccc(OC(=O)C3OC(C)(C)OC3C3COC(C)(C)O3)cc2)cc(OC)c1 [Compound 14-5, Pterostilbene D-Ribonic Acid Diacetonide]",< 10 µg/mL,> 200 µM,> 200 µM,,94.7 µM,59.5 µM,
"COc1ccc(/C=C/c2cc(OC)cc(OC(=O)C(C)(CO)CO)c2)cc1 [Compound 7-3, 3,4′methyl-5-[2,2-Bis(hydroxymethyl)propanoxy]-resveratrol]",53.4 µg/mL,64.2 µM,67.3 µM,more potent anticancer activity than resveratrol and pterostilbene,70.8 µM,48.7 µM,
"COc1ccc(/C=C/c2cc(OC(=O)C(C)(CO)CO)cc(OC(=O)C(C)(CO)CO)c2)cc1 [Compound 13-3, 3,5-[2,2-Bis(hydroxymethyl)propanoxy]-4′-methyl-resveratrol]",337 µg/mL,73.9 µM,70.8 µM,more potent anticancer activity than resveratrol and pterostilbene,53.4 µM,39.1 µM,
"CC(CO)(CO)C(=O)Oc1ccc(/C=C/c2cc(OC(=O)C(C)(CO)CO)cc(OC(=O)C(C)(CO)CO)c2)cc1 [Compound 4-3, 3,5,4′-[2,2-Bis(hydroxymethyl)propanoxy]-resveratrol]",372 µg/mL,149 µM,124 µM,,151 µM,95 µM,
"CC(CO)(CO)C(=O)Oc1cc(/C=C/c2ccc(O)cc2)cc(OC(=O)C(C)(CO)CO)c1 [Compound 6-3, 3,5-[2,2-Bis(hydroxymethyl)propanoxy]-resveratrol]",455 µg/mL,91.4 µM,77 µM,,137 µM,55.3 µM,
"COc1cc(/C=C/c2ccc(O)cc2)cc(OC)c1 [Pterostilbene, reference compound]",48 µg/mL,100 µM,98.3 µM,,75.3 µM,48.9 µM,no significant adverse biochemical parameters and toxic effects were noted
"COc1cc(/C=C/c2ccc(OC(=O)C(C)(CO)CO)cc2)cc(OC(C)=O)c1 [Compound 12-3, 5-acetyl-3-methyl-4′-[2,2-Bis(hydroxymethyl)propanoxy]-resveratrol]",81.9 µg/mL,52 µM,50.3 µM,more potent anticancer activity than resveratrol and pterostilbene,85.2 µM,36.8 µM,
"COc1cc(/C=C/c2ccc(OC(=O)C(C)(CO)CO)cc2)cc(OC(=O)C(C)(CO)CO)c1 [Compound 8-3, 3-methyl-5,4′-[2,2-Bis(hydroxymethyl)propanoxy]-resveratrol]",> 1000 µg/mL,56.5 µM,59.8 µM,,106 µM,66.5 µM,
"CC(CO)(CO)C(=O)Oc1ccc(/C=C/c2cc(O)cc(OC(=O)C(C)(CO)CO)c2)cc1 [Compound 3-6, 3,4′-[2,2-Bis(hydroxymethyl)propanoxy]-resveratrol]",136 µg/mL,105 µM,113 µM,more potent anticancer activity than resveratrol and pterostilbene,54.2 µM,36.8 µM,
